Data reported in PubChem BioAssay AID1918949 (Molecular Pharmacology Branch, DTP, NCI, 2023).
“And” between values parts separate entries of the source, which are not always exact repeats. Equal entries are not always repeated.

Test system: K24384-001-R-PDC complex spheroid viability
Assay: Anticancer human tumor K24384-001-R-PDC patient-derived pancreatic adenocarcinoma cell line growth inhibition
Details: for viability, T/C: stronger effect = lower value; active means viability on the fitted dose curve at most 10% of control; inactive means the rest
From the text: Multicellular complex tumor spheroid response to LSD1 Inhibitor Iadademstat in combination with a variety of drugs and investigational agents in selected tumor cell lines
The current study was undertaken to assess response to LSD1 inhibitors in combination with standard-of-care drugs and investigational agents in solid tumor complex spheroid models as well as in the K-562 leukemia. Complex spheroids include a stromal component modeled by human endothelial cells (HUVEC) and fibroblasts modeled by human mesenchymal stem cells (MSCs). The concentration ranges selected for each drug and investigational agent were based upon clinically achievable concentrations if the clinical Cmax of the agent was known.
Compounds. The drugs and investigational agents used in this study are listed on Table 1. All of the agents used, including staurosporine (NSC755774) and gemcitabine (NSC613327), were obtained from the Developmental Therapeutics Program, NCI. FDA-approved anticancer drugs are available from the NCI at http://dtp.nci.nih.gov/branches/dscb/oncology_drugset_explanation.html. Drugs and investigational agents were >95% pure by proton nuclear magnetic resonance (NMR) and liquid chromatography/mass spectrometry (LC/MS). Stock solutions were prepared at 400x in DMSO, stored at -70 degrees C, and diluted in fresh medium prior to their use. The final concentration of DMSO in cell culture wells never exceeded 0.25% (v/v). The FDA-approved anticancer drug set is available from the Developmental Therapeutics Program at https://dtp.cancer.gov/organization/dscb/obtaining/available_plates.htm. All drugs and investigational agents were tested over a range starting from a high concentration at or near the clinical Cmax and decreasing in half-log increments. If the clinical Cmax for an agent had not been determined, the highest concentration tested was 10 microM.
Cell Lines. The patient-derived cancer cell (PDC) lines: 292921-168-R-J2-PDC, K24384-001-R-PDC, and 521955-158-R2-J5-PDC pancreatic carcinomas, 556581-035-R-J1 ovarian carcinoma, 324938-238-R-J1-PDC, 855422-203-R-J1-PDC and 883617-216-R-J1-PDC urothelial bladder carcinomas, 743489-274-T-PDC renal cell carcinoma, 138582-R-J1 Merkel cell tumor, K60290-347-R-J1 and K57222-313-R-J1-PDC glioblastomas, 653999-131-R-J2-PDC, LG0703-F948-PDC, and 349418-098-R-PDC non-small cell lung carcinomas, 885512-296-R-J2-PDC, 171881-019-R-J1-PDC breast carcinomas and 186277-243-T-J2-PDC and 233499-124-R-J2-PDC colon carcinomas were obtained from the NCI Patient-Derived Models Repository (PDMR, https://pdmr.cancer.gov). The established cell lines NCI/ADR-RES (RRID:CVCL_14520 and OVCAR-5 (RRID:CVCL_1628) ovarian carcinomas, 786-O (RRID:CVCL_1051) and A498 (RRID:CVCL_A498) renal cell carcinoma, NCI-H211 (ATCC, cat. CRL-5824; RRID:CVCL_1529), NCI-H196 (ATCC, cat. CRL-5823, RRID:CVCL_1509), SW 1271 (ATCC, cat. CRL-2177, RRID:CVCL_1716) and NCI-H1876 (ATCC, cat. CRL-5902, RRID:CVCL_1503) small cell lung carcinomas, MDA-MB-231 (RRID:CVCL_0062) and MDA-MB-468 (RRID:CVCL_0419)breast carcinomas (10-12). Pooled donor human umbilical vein endothelial cells (HUVEC, Lonza, cat. CC-2519) and human mesenchymal stem cells (hMSC, Lonza, cat. PT-2501) were purchased from Lonza (Walkersville, MD).
Cell Culture. All cells were maintained in an incubator at 37 degrees C and 5% CO2 with 95% humidity. The PDC lines were cultured according to standard operating procedures established by the NCI PDMR (https://pdmr.cancer.gov). Briefly all PDCs were thawed and cultured in Matrigel-coated flasks prepared with a working solution of 1X Ham's F-12 nutrient mix, without supplementation (Invitrogen, Waltham, MA, cat. 11765054), 100 U/mL penicillin-streptomycin (Invitrogen, cat. 15140122), and 2.5% Matrigel (Corning Inc., Corning, NY, cat. 354248) for the first three passages. […]

[1] = curve of first compound, second compound 0.1 µM
[2] = curve of first compound, second compound 0.316 µM
[3] = curve of first compound, second compound 1 µM
[4] = curve of first compound, second compound 3.16 µM
[5] = curve of first compound, second compound 10 µM
[6] = second compound 0.1 µM, first compound 0.00316 µM
[7] = second compound 0.1 µM, first compound 0.01 µM
[8] = second compound 0.1 µM, first compound 0.0316 µM
[9] = second compound 0.1 µM, first compound 0.1 µM
[10] = second compound 0.316 µM, first compound 0.00316 µM
[11] = second compound 0.316 µM, first compound 0.01 µM
[12] = second compound 0.316 µM, first compound 0.0316 µM
[13] = second compound 0.316 µM, first compound 0.1 µM
[14] = second compound 1 µM, first compound 0.00316 µM
[15] = second compound 1 µM, first compound 0.01 µM
[16] = second compound 1 µM, first compound 0.0316 µM
[17] = second compound 1 µM, first compound 0.1 µM
[18] = second compound 3.16 µM, first compound 0.00316 µM
[19] = second compound 3.16 µM, first compound 0.01 µM
[20] = second compound 3.16 µM, first compound 0.0316 µM
[21] = second compound 3.16 µM, first compound 0.1 µM
[22] = second compound 10 µM, first compound 0.00316 µM
[23] = second compound 10 µM, first compound 0.01 µM
[24] = second compound 10 µM, first compound 0.0316 µM
[25] = second compound 10 µM, first compound 0.1 µM
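Further: spheroids exposed to agents for seven days before luminescence viability reading.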

Nc1ccn(C2OC(CO)C(O)C2(F)F)c(=O)n1 (centres undefined)
inactive: viability, T/C (compound 0.000949 µM) 97.6% | viability, T/C (compound 0.003 µM) 89% and 86.8% | viability, T/C (compound 0.00949 µM) 73% and 73.2% | viability, T/C (compound 0.03 µM) 60.7% and 53.4% | viability, T/C (compound 0.0949 µM) 44% and 42.3% | viability, T/C (compound 0.3 µM) 33.9% and 28.2%
62.5 nM and 45.8 nM: IC50 (curve of compound)

NC1CCC(NC2CC2c2ccccc2)CC1 (centres undefined)
> 10000 nM: IC50 (compound alone, run of 02/15/2022)
inactive: viability, T/C (compound 0.316 µM) 83.6% and 74.8%

Nc1ccn(C2OC(CO)C(O)C2(F)F)c(=O)n1 (centres undefined) + NC1CCC(NC2CC2c2ccccc2)CC1
inactive: viability, T/C (second compound 0.1 µM, first compound 0.000949 µM) 77.4% | viability, T/C (second compound 0.1 µM, first compound 0.003 µM) 68.3% | viability, T/C (second compound 0.1 µM, first compound 0.00949 µM) 67.8% | viability, T/C (second compound 0.1 µM, first compound 0.03 µM) 53.5% | viability, T/C (second compound 0.1 µM, first compound 0.0949 µM) 46.8% | viability, T/C (second compound 0.1 µM, first compound 0.3 µM) 33% | viability, T/C (second compound 0.316 µM, first compound 0.000949 µM) 73.9% | viability, T/C (second compound 0.316 µM, first compound 0.003 µM) 72% | viability, T/C (second compound 0.316 µM, first compound 0.00949 µM) 67.3% | viability, T/C (second compound 0.316 µM, first compound 0.03 µM) 52.9% | viability, T/C (second compound 0.316 µM, first compound 0.0949 µM) 46% | viability, T/C (second compound 0.316 µM, first compound 0.3 µM) 39.5% | viability, T/C (second compound 1 µM, first compound 0.000949 µM) 85.9% | viability, T/C (second compound 1 µM, first compound 0.003 µM) 68.1% | viability, T/C (second compound 1 µM, first compound 0.00949 µM) 62.4% | viability, T/C (second compound 1 µM, first compound 0.03 µM) 50.4% | viability, T/C (second compound 1 µM, first compound 0.0949 µM) 48% | viability, T/C (second compound 1 µM, first compound 0.3 µM) 41.9% | viability, T/C (second compound 3.16 µM, first compound 0.000949 µM) 84.3% | viability, T/C (second compound 3.16 µM, first compound 0.003 µM) 77.5% | viability, T/C (second compound 3.16 µM, first compound 0.00949 µM) 70.4% | viability, T/C (second compound 3.16 µM, first compound 0.03 µM) 59.9% | viability, T/C (second compound 3.16 µM, first compound 0.0949 µM) 48.7% | viability, T/C (second compound 3.16 µM, first compound 0.3 µM) 41.3% | viability, T/C (second compound 10 µM, first compound 0.000949 µM) 66.7% | viability, T/C (second compound 10 µM, first compound 0.003 µM) 68.5% | viability, T/C (second compound 10 µM, first compound 0.00949 µM) 69.3% | viability, T/C (second compound 10 µM, first compound 0.03 µM) 54.6% | viability, T/C (second compound 10 µM, first compound 0.0949 µM) 45.8% | viability, T/C (second compound 10 µM, first compound 0.3 µM) 39.2%
87.6 nM: IC50 [4]
44.5 nM: IC50 [3]
53.2 nM: IC50 [5]
57.9 nM: IC50 [1]
49.6 nM: IC50 [2]

CC[C@@]1(O)C(=O)OCc2c1cc1n(c2=O)Cc2cc3c(CN(C)C)c(O)ccc3nc2-1 + NC1CC1c1ccc(-c2cccc(O)c2)cc1
8.68 nM: IC50 [4]
9.47 nM: IC50 [3]
11.4 nM: IC50 [5]
10.4 nM: IC50 [1]
12.1 nM: IC50 [2]
inactive: viability, T/C (second compound 0.1 µM, first compound 0.000316 µM) 72.3% | viability, T/C (second compound 0.1 µM, first compound 0.001 µM) 81.5% | viability, T/C [6] 79.9% | viability, T/C [7] 50.3% | viability, T/C [8] 43.7% | viability, T/C [9] 33.2% | viability, T/C (second compound 0.316 µM, first compound 0.000316 µM) 76.1% | viability, T/C (second compound 0.316 µM, first compound 0.001 µM) 90.1% | viability, T/C [10] 62.9% | viability, T/C [11] 53.5% | viability, T/C [12] 43.7% | viability, T/C [13] 35.9% | viability, T/C (second compound 1 µM, first compound 0.000316 µM) 78.5% | viability, T/C (second compound 1 µM, first compound 0.001 µM) 89% | viability, T/C [14] 73.3% | viability, T/C [15] 49.8% | viability, T/C [16] 33.5% | viability, T/C [17] 35.3% | viability, T/C (second compound 3.16 µM, first compound 0.000316 µM) 75.8% | viability, T/C (second compound 3.16 µM, first compound 0.001 µM) 79.2% | viability, T/C [18] 77.6% | viability, T/C [19] 46.1% | viability, T/C [20] 42% | viability, T/C [21] 33.9% | viability, T/C (second compound 10 µM, first compound 0.000316 µM) 79% | viability, T/C (second compound 10 µM, first compound 0.001 µM) 81.7% | viability, T/C [22] 84.4% | viability, T/C [23] 51.1% | viability, T/C [24] 40.9% | viability, T/C [25] 41.1%

CC1COCCN1c1cc(-c2ccnn2C)c2ccnc(-c3ccn[nH]3)c2n1 (centres undefined) + NC1CC1c1ccc(-c2cccc(O)c2)cc1
16.3 nM: IC50 [3]
inactive: viability, T/C [6] 51.2% | viability, T/C [7] 51.4% | viability, T/C [8] 40.2% | viability, T/C [9] 44.7% | viability, T/C (second compound 0.1 µM, first compound 0.316 µM) 46.9% | viability, T/C (second compound 0.1 µM, first compound 1 µM) 38% | viability, T/C [10] 56.1% | viability, T/C [11] 46.6% | viability, T/C [12] 51% | viability, T/C [13] 45.1% | viability, T/C (second compound 0.316 µM, first compound 0.316 µM) 53.5% | viability, T/C (second compound 0.316 µM, first compound 1 µM) 34% | viability, T/C [14] 53% | viability, T/C [15] 59.9% | viability, T/C [16] 40.9% | viability, T/C [17] 42.9% | viability, T/C (second compound 1 µM, first compound 0.316 µM) 43.8% | viability, T/C (second compound 1 µM, first compound 1 µM) 35.8% | viability, T/C [18] 56.5% | viability, T/C [19] 52.3% | viability, T/C [20] 43.7% | viability, T/C [21] 39.7% | viability, T/C (second compound 3.16 µM, first compound 0.316 µM) 48.1% | viability, T/C (second compound 3.16 µM, first compound 1 µM) 37% | viability, T/C [22] 64.2% | viability, T/C [23] 60.1% | viability, T/C [24] 51.1% | viability, T/C [25] 59% | viability, T/C (second compound 10 µM, first compound 0.316 µM) 51.8% | viability, T/C (second compound 10 µM, first compound 1 µM) 31.7%
326 nM: IC50 [2]
10.4 nM: IC50 [4]
4.71 nM: IC50 [1]
343 nM: IC50 [5]
